From ChEMBL document CHEMBL5338717, “Discovery of novel PDE4 inhibitors targeting the M-pocket from natural mangostanin with improved safety for the treatment of Inflammatory Bowel Diseases” (Eur J Med Chem, 2022)
Active and inactive are the calls of the source. No cut-off for these calls is given here.

How the values were obtained:
Mus musculus [1] = experiment: Anti-inflammatory bowel disease activity in DSS-induced inflammatory bowel disease C57BL/6 mouse model assessed as increase in body weight at 5 mg/kg, iv BID and measured after 8 days […]; type: functional, organism-based; conditions: time 8.0 day
[2] = AUC(0 to 24 hrs) in Sprague-Dawley rat at 2.5 mg/kg, iv; type: ADME, organism-based; set-up: dose 2.5 mg/kg, route iv; conditions: in vivo
Mus musculus [3] = experiment: Anti-inflammatory bowel disease activity in DSS-induced inflammatory bowel disease C57BL/6 mouse model assessed as decrease in epithelial damage in colon at 5 mg/kg, iv BID and measured after 8 days by Haematoxylin and eosin staining based microscopy; type: functional, organism-based; conditions: time 8.0 day
[4] = MRT(0 to 24 hrs) in Sprague-Dawley rat at 2.5 mg/kg, iv; type: ADME, organism-based; conditions: in vivo
[5] = target: Voltage-gated inwardly rectifying potassium channel KCNH2 (Homo sapiens, UniProt Q12809); experiment: Inhibition of human ERG; type: toxicity
[6] = Selectivity index, ratio of IC50 for inhibition of recombinant PDE2A (580 to 919 residues) (unknown origin) expressed in Escherichia coli BL21 to IC50 for inhibition of recombinant PDE4D2 (86 to 413 residues) (unknown origin) expressed in Escherichia coli BL21
Cytochrome P450 3A4 = Cytochrome P450 3A4 (Homo sapiens, UniProt P08684); experiment: Inhibition of human CYP3A4 in human hepatocytes; type: ADME, cell-based, Hepatocyte
[7] = Selectivity index, ratio of IC50 for inhibition of recombinant PDE10A2 (449 to 770 residues) (unknown origin) expressed in Escherichia coli BL21 to IC50 for inhibition of recombinant PDE4D2 (86 to 413 residues) (unknown origin) expressed in Escherichia coli BL21
Mus musculus [8] = experiment: Anti-inflammatory bowel disease activity in DSS-induced inflammatory bowel disease C57BL/6 mouse model assessed as decrease in loss of crypt architecture in colon at 5 mg/kg, iv BID and measured after 8 days by Haematoxylin and eosin staining based microscopy; type: functional, organism-based; conditions: time 8.0 day
[9] = target: 3',5'-cyclic-AMP phosphodiesterase 4D (Homo sapiens, UniProt Q08499); experiment: Inhibition of recombinant PDE4D2 (86 to 413 residues) (unknown origin) expressed in Escherichia coli BL21 using [3H]cAMP as substrate incubated for 15 mins by liquid scintillation method
[10] = Toxicity in twelve hrs fasted Beagle dog assessed as emesis at 10 mg/kg,po and measured upto 180 mins; type: organism-based, Canis lupus familiaris; conditions: in vivo, 3 h
[11] = Acute toxicity in mouse assessed as body weight change at 0.75 g/Kg,po; conditions: in vivo, 750 mg/kg
Cytochrome P450 2D6 = Cytochrome P450 2D6 (Homo sapiens, UniProt P10635); experiment: Inhibition of human CYP2D6 in human hepatocytes; type: ADME, cell-based, Hepatocyte
Mus musculus [12] = experiment: Anti-inflammatory bowel disease activity in DSS-induced inflammatory bowel disease C57BL/6 mouse model assessed as decrease in rectal bleeding by measuring disease activity index score at 5 mg/kg, iv BID and measured upto 8 days by Haem-occult test; type: functional, organism-based; conditions: time <= 8.0 day
[13] = target: High affinity cAMP-specific and IBMX-insensitive 3',5'-cyclic phosphodiesterase 8A (Homo sapiens, UniProt O60658); experiment: Inhibition of recombinant PDE8A1 (480 to 828 residues) (unknown origin) expressed in Escherichia coli BL21 using [3H]cAMP as substrate incubated for 15 mins by liquid scintillation method
[14] = target: cAMP and cAMP-inhibited cGMP 3',5'-cyclic phosphodiesterase 10A (Homo sapiens, UniProt Q9Y233); experiment: Inhibition of recombinant PDE10A2 (449 to 770 residues) (unknown origin) expressed in Escherichia coli BL21 using [3H]cAMP as substrate incubated for 15 mins by liquid scintillation method
Mus musculus [15] = experiment: Anti-inflammatory bowel disease activity in DSS-induced inflammatory bowel disease C57BL/6 mouse model assessed as decrease in diarrhoea by measuring disease activity index score at 5 mg/kg, iv BID and measured upto 8 days; type: functional, organism-based; conditions: time <= 8.0 day
Mus musculus [16] = experiment: Anti-inflammatory bowel disease activity in DSS-induced inflammatory bowel disease C57BL/6 mouse model assessed as decrease in IL-10 mRNA expression level in colon at 5 mg/kg, iv BID and measured after 8 days by real-time PCR analysis; type: functional, organism-based; conditions: time 8.0 day
[17] = Volume of distribution at steady state in Sprague-Dawley rat at 2.5 mg/kg, iv; type: ADME, organism-based; conditions: in vivo, read-out: Vdss
[18] = Selectivity index, ratio of IC50 for inhibition of PDE7A1 (130 to 482 residues) (unknown origin) expressed in Escherichia coli BL21 to IC50 for inhibition of recombinant PDE4D2 (86 to 413 residues) (unknown origin) expressed in Escherichia coli BL21
[19] = target: cGMP-specific 3',5'-cyclic phosphodiesterase (Homo sapiens, UniProt O76074); experiment: Inhibition of recombinant PDE5A1 (535 to 860 residues) (unknown origin) expressed in Escherichia coli BL21 using [3H]cGMP as substrate incubated for 15 mins by liquid scintillation method
Cytochrome P450 2B6 = target: T1, Cytochrome P450 2B6 (Homo sapiens, UniProt P20813); experiment: Inhibition of human CYP2B6 in human hepatocytes; type: ADME, cell-based, Hepatocyte
T1 sequence (P20813 whole entry): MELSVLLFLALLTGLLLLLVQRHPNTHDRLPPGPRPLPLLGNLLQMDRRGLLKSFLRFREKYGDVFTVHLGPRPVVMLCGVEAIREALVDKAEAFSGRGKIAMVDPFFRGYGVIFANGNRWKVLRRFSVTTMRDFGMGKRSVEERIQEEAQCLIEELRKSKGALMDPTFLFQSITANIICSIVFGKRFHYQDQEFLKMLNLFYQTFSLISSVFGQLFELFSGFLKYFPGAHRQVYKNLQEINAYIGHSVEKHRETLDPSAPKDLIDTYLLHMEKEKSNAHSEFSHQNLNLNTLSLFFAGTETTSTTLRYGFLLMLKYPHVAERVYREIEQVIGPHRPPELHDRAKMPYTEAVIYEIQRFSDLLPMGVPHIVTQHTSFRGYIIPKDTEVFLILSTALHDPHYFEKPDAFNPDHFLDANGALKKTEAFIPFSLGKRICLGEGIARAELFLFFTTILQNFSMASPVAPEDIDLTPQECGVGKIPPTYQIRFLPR

[20] = Selectivity index, ratio of IC50 for inhibition of recombinant PDE1C (147 to 531 residues) (unknown origin) expressed in Escherichia coli BL21 to IC50 for inhibition of recombinant PDE4D2 (86 to 413 residues) (unknown origin) expressed in Escherichia coli BL21
Mus musculus [21] = experiment: Anti-inflammatory bowel disease activity in DSS-induced inflammatory bowel disease C57BL/6 mouse model assessed as decrease in IFN-gamma mRNA expression level in colon at 5 mg/kg, iv BID and measured after 8 days by real-time PCR analysis; type: functional, organism-based; conditions: time 8.0 day

Chain of Cytochrome P450 3A4 (P08684 whole entry, the tested form may be a part): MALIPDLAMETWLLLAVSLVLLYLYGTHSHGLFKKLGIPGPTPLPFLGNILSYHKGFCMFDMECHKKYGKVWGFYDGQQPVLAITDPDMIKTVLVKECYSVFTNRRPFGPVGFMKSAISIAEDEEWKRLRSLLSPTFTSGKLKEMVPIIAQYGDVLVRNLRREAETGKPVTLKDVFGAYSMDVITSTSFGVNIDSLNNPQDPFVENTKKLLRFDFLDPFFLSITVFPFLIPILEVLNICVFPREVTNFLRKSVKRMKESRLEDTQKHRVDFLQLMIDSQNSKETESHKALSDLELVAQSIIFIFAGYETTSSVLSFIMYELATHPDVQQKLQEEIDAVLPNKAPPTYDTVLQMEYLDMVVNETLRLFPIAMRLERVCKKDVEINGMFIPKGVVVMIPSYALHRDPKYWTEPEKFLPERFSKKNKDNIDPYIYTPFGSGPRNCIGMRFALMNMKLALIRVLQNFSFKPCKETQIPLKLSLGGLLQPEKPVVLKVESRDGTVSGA
Chain of 3',5'-cyclic-AMP phosphodiesterase 4D (Q08499 whole entry, the tested form may be a part): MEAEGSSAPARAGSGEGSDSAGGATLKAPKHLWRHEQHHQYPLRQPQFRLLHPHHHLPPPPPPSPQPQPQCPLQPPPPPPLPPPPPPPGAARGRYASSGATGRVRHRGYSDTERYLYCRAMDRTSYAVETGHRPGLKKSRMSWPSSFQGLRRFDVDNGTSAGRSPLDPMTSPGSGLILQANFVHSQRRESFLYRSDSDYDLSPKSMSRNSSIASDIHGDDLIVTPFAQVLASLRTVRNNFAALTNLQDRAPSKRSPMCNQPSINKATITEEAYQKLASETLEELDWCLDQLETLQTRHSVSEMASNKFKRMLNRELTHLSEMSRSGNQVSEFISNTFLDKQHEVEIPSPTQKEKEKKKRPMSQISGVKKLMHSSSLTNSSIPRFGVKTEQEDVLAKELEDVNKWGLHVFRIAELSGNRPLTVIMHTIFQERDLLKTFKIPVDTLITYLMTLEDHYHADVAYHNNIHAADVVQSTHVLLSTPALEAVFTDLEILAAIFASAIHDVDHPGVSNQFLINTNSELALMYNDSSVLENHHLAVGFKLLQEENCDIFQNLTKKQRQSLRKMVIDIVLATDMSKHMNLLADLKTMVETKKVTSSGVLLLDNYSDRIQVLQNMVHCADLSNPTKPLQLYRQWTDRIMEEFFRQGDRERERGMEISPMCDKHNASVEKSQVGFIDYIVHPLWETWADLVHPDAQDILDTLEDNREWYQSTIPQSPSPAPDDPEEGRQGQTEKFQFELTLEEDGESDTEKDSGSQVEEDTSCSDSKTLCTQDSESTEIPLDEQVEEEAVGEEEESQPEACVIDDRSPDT
Chain of Cytochrome P450 2D6 (P10635 whole entry): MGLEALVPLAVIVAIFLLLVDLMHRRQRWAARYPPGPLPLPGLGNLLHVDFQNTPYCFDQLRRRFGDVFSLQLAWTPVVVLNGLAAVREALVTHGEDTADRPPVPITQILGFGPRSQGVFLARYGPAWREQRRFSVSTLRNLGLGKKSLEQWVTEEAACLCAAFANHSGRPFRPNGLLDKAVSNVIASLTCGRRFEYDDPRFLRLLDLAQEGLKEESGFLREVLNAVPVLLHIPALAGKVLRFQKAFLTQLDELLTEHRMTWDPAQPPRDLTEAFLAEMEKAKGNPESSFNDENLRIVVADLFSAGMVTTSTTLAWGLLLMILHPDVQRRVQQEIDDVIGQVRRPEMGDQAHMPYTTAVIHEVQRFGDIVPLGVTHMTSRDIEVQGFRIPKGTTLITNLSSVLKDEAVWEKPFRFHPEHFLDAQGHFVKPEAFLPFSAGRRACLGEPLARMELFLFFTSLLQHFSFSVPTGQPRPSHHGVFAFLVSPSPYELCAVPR
Chain of High affinity cAMP-specific and IBMX-insensitive 3',5'-cyclic phosphodiesterase 8A (O60658 whole entry, the tested form may be a part): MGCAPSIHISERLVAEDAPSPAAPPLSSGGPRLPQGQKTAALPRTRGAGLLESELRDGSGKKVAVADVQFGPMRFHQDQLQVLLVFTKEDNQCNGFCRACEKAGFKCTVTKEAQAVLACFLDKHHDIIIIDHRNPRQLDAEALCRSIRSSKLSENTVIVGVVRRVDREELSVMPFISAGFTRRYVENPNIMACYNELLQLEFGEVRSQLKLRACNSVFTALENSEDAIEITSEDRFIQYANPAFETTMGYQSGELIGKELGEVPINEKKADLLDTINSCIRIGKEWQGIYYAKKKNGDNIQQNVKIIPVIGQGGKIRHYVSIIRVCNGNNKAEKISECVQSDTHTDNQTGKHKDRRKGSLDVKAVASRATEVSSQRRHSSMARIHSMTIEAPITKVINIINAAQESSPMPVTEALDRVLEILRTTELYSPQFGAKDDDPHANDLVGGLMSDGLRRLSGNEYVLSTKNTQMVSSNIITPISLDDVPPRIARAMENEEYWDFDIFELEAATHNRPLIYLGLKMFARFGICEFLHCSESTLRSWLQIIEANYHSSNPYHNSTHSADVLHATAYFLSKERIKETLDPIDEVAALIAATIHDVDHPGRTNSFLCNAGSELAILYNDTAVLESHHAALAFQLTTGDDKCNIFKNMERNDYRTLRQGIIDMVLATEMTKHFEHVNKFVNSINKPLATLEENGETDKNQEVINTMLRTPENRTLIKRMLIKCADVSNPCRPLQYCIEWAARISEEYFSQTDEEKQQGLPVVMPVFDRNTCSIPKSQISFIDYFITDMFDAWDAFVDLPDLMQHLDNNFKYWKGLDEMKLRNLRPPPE
Chain of cAMP and cAMP-inhibited cGMP 3',5'-cyclic phosphodiesterase 10A (Q9Y233 whole entry, the tested form may be a part): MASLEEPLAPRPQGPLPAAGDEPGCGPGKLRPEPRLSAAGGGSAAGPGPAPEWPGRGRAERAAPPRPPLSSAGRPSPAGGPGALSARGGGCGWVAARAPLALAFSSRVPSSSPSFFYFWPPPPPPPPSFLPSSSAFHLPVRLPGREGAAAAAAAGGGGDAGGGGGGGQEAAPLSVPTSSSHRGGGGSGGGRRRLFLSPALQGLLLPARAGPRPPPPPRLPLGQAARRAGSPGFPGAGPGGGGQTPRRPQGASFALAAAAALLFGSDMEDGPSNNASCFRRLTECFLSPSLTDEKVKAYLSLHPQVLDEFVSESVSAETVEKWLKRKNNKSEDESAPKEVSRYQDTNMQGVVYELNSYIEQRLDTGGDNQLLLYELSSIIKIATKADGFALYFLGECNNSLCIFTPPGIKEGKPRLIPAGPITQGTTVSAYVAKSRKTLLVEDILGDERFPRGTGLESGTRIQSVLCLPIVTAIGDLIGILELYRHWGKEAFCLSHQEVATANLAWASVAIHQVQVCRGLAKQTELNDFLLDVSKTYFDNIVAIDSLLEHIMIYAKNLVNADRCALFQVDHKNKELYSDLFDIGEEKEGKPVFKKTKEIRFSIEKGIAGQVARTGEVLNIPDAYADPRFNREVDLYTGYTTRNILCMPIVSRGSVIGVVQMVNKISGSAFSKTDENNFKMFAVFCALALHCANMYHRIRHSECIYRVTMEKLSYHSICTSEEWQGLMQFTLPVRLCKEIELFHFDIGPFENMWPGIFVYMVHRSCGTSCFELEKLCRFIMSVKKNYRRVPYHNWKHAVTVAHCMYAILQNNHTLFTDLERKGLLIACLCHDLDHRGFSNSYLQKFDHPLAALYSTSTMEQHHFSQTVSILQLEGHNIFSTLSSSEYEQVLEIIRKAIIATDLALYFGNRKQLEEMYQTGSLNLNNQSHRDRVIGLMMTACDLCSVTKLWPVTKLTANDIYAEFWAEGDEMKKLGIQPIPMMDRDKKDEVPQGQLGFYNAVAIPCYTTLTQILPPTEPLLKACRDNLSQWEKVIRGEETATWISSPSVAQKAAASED
Chain of Voltage-gated inwardly rectifying potassium channel KCNH2 (Q12809 whole entry, the tested form may be a part): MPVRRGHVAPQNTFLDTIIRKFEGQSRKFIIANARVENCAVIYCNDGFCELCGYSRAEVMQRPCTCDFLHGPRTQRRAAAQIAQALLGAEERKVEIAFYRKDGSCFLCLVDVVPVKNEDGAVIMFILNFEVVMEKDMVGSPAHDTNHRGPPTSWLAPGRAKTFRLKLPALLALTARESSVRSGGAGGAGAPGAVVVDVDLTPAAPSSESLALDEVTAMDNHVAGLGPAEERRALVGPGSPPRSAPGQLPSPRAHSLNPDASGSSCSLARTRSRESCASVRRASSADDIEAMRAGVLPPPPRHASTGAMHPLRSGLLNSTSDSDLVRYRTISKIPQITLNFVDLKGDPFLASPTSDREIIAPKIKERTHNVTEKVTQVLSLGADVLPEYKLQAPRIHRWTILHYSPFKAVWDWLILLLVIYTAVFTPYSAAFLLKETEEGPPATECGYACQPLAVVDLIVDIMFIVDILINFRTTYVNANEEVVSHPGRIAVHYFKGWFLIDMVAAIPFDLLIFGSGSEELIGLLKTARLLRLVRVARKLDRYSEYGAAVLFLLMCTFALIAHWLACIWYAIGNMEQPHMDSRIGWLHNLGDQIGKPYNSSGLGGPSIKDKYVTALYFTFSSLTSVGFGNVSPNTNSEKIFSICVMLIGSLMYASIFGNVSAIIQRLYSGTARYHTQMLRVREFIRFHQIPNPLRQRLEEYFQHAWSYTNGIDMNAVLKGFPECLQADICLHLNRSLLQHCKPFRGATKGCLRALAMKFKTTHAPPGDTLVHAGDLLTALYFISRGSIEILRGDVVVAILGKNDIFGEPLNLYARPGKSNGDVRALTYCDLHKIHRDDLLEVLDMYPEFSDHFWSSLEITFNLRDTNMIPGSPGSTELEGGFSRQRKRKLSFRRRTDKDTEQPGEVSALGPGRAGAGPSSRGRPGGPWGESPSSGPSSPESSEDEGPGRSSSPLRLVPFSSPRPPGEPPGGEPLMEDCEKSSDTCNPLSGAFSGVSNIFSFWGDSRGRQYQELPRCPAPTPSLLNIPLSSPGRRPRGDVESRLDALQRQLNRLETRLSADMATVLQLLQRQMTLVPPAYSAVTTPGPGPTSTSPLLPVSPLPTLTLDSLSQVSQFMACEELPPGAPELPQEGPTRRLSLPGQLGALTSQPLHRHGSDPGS

COc1c(OCC2CC2)cc2oc3cc4c(c(OCc5ccncc5)c3c(=O)c2c1CC=C(C)C)C=CC(C)(C)O4
Activity (Mus musculus [1]): Active | AUC(0-t) [2]: 6520 ng·h/mL | Activity (Mus musculus [3]): Active | MRT last [4]: 1.76 h | IC50 [5]: > 40000 nM | Ratio IC50 [6]: > 2800 | IC50 (Cytochrome P450 3A4): 6100 nM | Ratio IC50 [7]: 290 | Activity (Mus musculus [8]): Active | IC50 [9]: 3.5 nM | Activity [10]: Non-Toxic | Activity [11]: Non-Toxic | IC50 (Cytochrome P450 2D6): > 25000 nM | Activity (Mus musculus [12]): Active | IC50 [13]: 194 nM | IC50 [14]: 1020 nM | Activity (Mus musculus [15]): Active | Activity (Mus musculus [16]): Active | Vd [17]: 0.673 L/kg | Ratio IC50 [18]: 4.27 | IC50 [19]: 1240 nM | IC50 (Cytochrome P450 2B6): > 25000 nM | Ratio IC50 [20]: > 2800 | Activity (Mus musculus [21]): Active
